Source: publication PMC9482650, “Quantitative fragmentomics allow affinity mapping of interactomes” (Nature Communications, 2022)
Ends that are not written are not given here.

What was measured:
Assay in all cases: Holdup assay
Assay type in all cases: binding
MPDZ_10 PDZ = MPDZ_10 PDZ (Homo sapiens, UniProt O75970)
MAGI1_4 PDZ = MAGI1_4 PDZ (Homo sapiens, UniProt Q96QZ7)
GOPC PDZ = GOPC PDZ (Homo sapiens, UniProt Q9HD26)
GRIP2_2 PDZ = GRIP2_2 PDZ (Homo sapiens, UniProt Q9C0E4)
RADIL PDZ = RADIL PDZ (Homo sapiens, UniProt Q96JH8)
LNX2_2 PDZ = LNX2_2 PDZ (Homo sapiens, UniProt Q8N448)
Inadl_5 PDZ = Inadl_5 PDZ (Homo sapiens, UniProt Q8NI35)
DFNB31_1 PDZ = DFNB31_1 PDZ (Homo sapiens, UniProt Q9P202); conditions: composite holdup affinity; 0.00=below quantification threshold; read-out: COMP pKd (converted)
DLG5_2 PDZ = DLG5_2 PDZ (Homo sapiens, UniProt Q8TDM6); conditions: sheet PPI_convert; read-out: affinity to PDZ DLG5_2 (converted)
MAGI1_6 PDZ = MAGI1_6 PDZ (Homo sapiens, UniProt Q96QZ7); conditions: sheet PPI_convert; read-out: affinity to PDZ MAGI1_6 (converted)
PDZD4 PDZ = PDZD4 PDZ (Homo sapiens, UniProt Q76G19); conditions: sheet PPI_convert; read-out: affinity to PDZ PDZD4 (converted)
From the text: Supplement 41467_2022_33018_MOESM4_ESM.xlsx, sheet "PPI_convert" | column: PDZD4

MAGI3_6 PDZ = MAGI3_6 PDZ (Homo sapiens, UniProt Q5TCQ9); conditions: sheet PPI_convert; read-out: affinity to PDZ MAGI3_6 (converted)
IL16_2 PDZ = IL16_2 PDZ (Homo sapiens, UniProt Q14005); conditions: sheet PPI_convert; read-out: affinity to PDZ IL16_2 (converted)
MPP3 PDZ = MPP3 PDZ (Homo sapiens, UniProt Q13368); conditions: sheet PPI_convert; read-out: affinity to PDZ MPP3 (converted)
NHERF4_3 PDZ = NHERF4_3 PDZ (Homo sapiens, UniProt Q86UT5); conditions: sheet PPI_convert; read-out: affinity to PDZ NHERF4_3 (converted)
MAGIX PDZ = MAGIX PDZ (Homo sapiens, UniProt Q9H6Y5); conditions: sheet PPI_convert; read-out: affinity to PDZ MAGIX (converted)
From the text: Supplement 41467_2022_33018_MOESM4_ESM.xlsx, sheet "PPI_convert" | column: MAGIX

MPDZ_13 PDZ = MPDZ_13 PDZ (Homo sapiens, UniProt O75970); conditions: sheet PPI_convert; read-out: affinity to PDZ MPDZ_13 (converted)
PDLIM4 PDZ = PDLIM4 PDZ (Homo sapiens, UniProt P50479); conditions: sheet PPI_convert; read-out: affinity to PDZ PDLIM4 (converted)
From the text: Supplement 41467_2022_33018_MOESM4_ESM.xlsx, sheet "PPI_convert" | column: PDLIM4

MPDZ_4 PDZ = MPDZ_4 PDZ (Homo sapiens, UniProt O75970); conditions: sheet PPI_convert; read-out: affinity to PDZ MPDZ_4 (converted)
From the text: Supplement 41467_2022_33018_MOESM4_ESM.xlsx, sheet "PPI_convert" | column: MPDZ_4

MAGI1_3 PDZ = MAGI1_3 PDZ (Homo sapiens, UniProt Q96QZ7); conditions: sheet PPI_convert; read-out: affinity to PDZ MAGI1_3 (converted)
MLLT4 PDZ = MLLT4 PDZ (Homo sapiens, UniProt P55196); conditions: sheet PPI_convert; read-out: affinity to PDZ MLLT4 (converted)
From the text: Supplement 41467_2022_33018_MOESM4_ESM.xlsx, sheet "PPI_convert" | column: MLLT4

MAGI1_5 PDZ = MAGI1_5 PDZ (Homo sapiens, UniProt Q96QZ7); conditions: sheet PPI_convert; read-out: affinity to PDZ MAGI1_5 (converted)
MAGI2_6 PDZ = MAGI2_6 PDZ (Homo sapiens, UniProt Q86UL8); conditions: composite holdup affinity; 0.00=below quantification threshold; read-out: COMP pKd (converted)
NHERF2_1 PDZ = NHERF2_1 PDZ (Homo sapiens, UniProt Q15599); conditions: sheet PPI_convert; read-out: affinity to PDZ NHERF2_1 (converted)
PARD3B_3 PDZ = PARD3B_3 PDZ (Homo sapiens, UniProt Q8TEW8); conditions: sheet PPI_convert; read-out: affinity to PDZ PARD3B_3 (converted)
Sequence of PARD3B_3 PDZ (Q8TEW8 498-585 limits assumed): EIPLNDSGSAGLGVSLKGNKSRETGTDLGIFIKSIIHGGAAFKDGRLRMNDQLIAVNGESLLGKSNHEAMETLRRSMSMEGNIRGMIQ

Sequence of DFNB31_1 PDZ (Q9P202 140-223 limits assumed): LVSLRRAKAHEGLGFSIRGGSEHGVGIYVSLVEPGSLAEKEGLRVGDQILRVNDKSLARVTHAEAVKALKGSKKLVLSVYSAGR
Sequence of MPDZ_4 PDZ (O75970 553-634 limits assumed): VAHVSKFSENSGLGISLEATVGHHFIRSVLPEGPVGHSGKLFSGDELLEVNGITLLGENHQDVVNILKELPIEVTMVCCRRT
Sequence of MAGI1_5 PDZ (Q96QZ7 970-1066 limits assumed): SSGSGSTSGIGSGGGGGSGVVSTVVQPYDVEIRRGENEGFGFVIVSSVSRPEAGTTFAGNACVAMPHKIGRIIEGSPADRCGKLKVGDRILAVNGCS
Sequence of MAGIX PDZ (Q9H6Y5 125-209): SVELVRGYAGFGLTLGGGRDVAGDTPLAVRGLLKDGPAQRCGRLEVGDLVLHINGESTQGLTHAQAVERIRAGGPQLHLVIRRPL
Sequence of MAGI2_6 PDZ (Q86UL8 1147-1229 limits assumed): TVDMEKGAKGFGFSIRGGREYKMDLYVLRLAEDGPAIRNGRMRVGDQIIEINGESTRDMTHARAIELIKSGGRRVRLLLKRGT
Sequence of NHERF4_3 PDZ (Q86UT5 329-412 limits assumed): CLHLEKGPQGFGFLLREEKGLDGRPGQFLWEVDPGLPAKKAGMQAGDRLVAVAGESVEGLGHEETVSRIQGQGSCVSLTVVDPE
Sequence of LNX2_2 PDZ (Q8N448 339-422 limits assumed): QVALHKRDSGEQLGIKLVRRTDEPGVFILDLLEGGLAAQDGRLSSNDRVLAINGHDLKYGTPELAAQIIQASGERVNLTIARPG
Sequence of RADIL PDZ (Q96JH8 976-1061 limits assumed): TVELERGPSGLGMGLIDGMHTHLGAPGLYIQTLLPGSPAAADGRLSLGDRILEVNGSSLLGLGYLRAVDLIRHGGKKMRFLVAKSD
Sequence of MPDZ_13 PDZ (O75970 1987-2070 limits assumed): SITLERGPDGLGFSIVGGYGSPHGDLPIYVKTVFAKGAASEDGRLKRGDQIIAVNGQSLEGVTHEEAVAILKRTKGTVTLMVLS
Sequence of MLLT4 PDZ (P55196 1007-1093 limits assumed): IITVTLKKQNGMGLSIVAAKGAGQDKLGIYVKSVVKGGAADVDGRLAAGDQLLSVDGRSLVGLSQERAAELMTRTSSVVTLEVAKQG
Sequence of MAGI1_4 PDZ (Q96QZ7 813-895 limits assumed): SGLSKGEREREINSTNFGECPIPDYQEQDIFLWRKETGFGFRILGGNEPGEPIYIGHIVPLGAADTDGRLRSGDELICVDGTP
Sequence of PDZD4 PDZ (Q76G19 130-214 limits assumed): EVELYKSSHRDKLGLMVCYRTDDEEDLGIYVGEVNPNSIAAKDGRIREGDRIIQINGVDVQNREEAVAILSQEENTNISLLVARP
Sequence of DLG5_2 PDZ (Q8TDM6 705-796 limits assumed): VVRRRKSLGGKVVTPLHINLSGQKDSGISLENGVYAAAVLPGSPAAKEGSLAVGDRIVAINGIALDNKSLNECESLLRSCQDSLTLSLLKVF
Sequence of GRIP2_2 PDZ (Q9C0E4 148-234 limits assumed): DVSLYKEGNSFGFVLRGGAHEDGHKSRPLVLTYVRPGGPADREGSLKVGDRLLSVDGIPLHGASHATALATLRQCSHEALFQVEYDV
Sequence of MPDZ_10 PDZ (O75970 1629-1712 limits assumed): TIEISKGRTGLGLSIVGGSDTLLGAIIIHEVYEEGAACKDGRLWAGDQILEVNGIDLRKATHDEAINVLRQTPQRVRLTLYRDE
Sequence of IL16_2 PDZ (Q14005 355-440 limits assumed): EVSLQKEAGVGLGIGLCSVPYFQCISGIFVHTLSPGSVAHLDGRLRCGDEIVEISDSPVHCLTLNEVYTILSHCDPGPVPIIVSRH
Sequence of Inadl_5 PDZ (Q8NI35 686-772 limits assumed): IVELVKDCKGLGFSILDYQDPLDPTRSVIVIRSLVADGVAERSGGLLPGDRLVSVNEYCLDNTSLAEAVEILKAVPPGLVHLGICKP
Sequence of MPP3 PDZ (Q13368 137-212 limits assumed): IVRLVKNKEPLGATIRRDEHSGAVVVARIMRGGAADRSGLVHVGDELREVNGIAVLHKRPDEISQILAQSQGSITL
Sequence of MAGI1_3 PDZ (Q96QZ7 643-721 limits assumed): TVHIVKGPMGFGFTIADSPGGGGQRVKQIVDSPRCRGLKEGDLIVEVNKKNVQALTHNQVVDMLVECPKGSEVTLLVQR
Sequence of NHERF2_1 PDZ (Q15599 11-90 limits assumed): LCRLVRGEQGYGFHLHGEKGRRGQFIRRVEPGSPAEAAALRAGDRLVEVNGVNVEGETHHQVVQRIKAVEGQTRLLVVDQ
Sequence of MAGI1_6 PDZ (Q96QZ7 1124-1206 limits assumed): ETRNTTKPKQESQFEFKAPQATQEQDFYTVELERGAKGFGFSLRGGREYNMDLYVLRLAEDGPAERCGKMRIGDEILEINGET
Sequence of MAGI3_6 PDZ (Q5TCQ9 1021-1103 limits assumed): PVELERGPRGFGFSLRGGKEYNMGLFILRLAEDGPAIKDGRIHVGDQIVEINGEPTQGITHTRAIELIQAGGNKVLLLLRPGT
Sequence of PDLIM4 PDZ (P50479 1-84 limits assumed): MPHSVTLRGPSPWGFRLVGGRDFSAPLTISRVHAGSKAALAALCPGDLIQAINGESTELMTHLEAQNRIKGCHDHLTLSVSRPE

Compound: CC(C)C[C@H](NC(=O)[C@@H](N)CCCNC(=N)N)C(=O)N[C@@H](CCC(N)=O)C(=O)N[C@@H](CCCNC(=N)N)C(=O)N[C@@H](CCCNC(=N)N)C(=O)N[C@@H](CCCNC(=N)N)C(=O)N[C@@H](CCC(=O)O)C(=O)N[C@H](C(=O)N[C@@H](CCC(N)=O)C(=O)N[C@H](C(=O)O)C(C)C)[C@@H](C)O [HPV18-E6]
- Kd (MPDZ_10 PDZ): 275 µM
- Kd (MAGI1_4 PDZ): 52.5 µM
- Kd (GOPC PDZ): 661 µM
- Kd (GRIP2_2 PDZ): 33.1 µM
- Kd (RADIL PDZ): 525 µM
- Kd (LNX2_2 PDZ): 676 µM
- Kd (Inadl_5 PDZ): 302 µM

Compound: SRRPRTETQV [HPV31-E6]
- Kd (DFNB31_1 PDZ): 282 µM

Compound: SKPTRRETEV [HPV35-E6]
- Kd (DLG5_2 PDZ): 19.1 µM
- Kd (MAGI1_6 PDZ): 219 µM
- Kd (PDZD4 PDZ): 282 µM
- Kd (MAGI3_6 PDZ): 155 µM
- Kd (IL16_2 PDZ): 269 µM
- Kd (MPP3 PDZ): 200 µM
- Kd (NHERF4_3 PDZ): 166 µM
- Kd (MAGIX PDZ): 275 µM
- Kd (MPDZ_13 PDZ): 170 µM
- Kd (PDLIM4 PDZ): 69.2 µM
- Kd (MPDZ_4 PDZ): 282 µM
- Kd (MAGI1_3 PDZ): 81.3 µM
- Kd (MLLT4 PDZ): 162 µM
- Kd (MAGI1_5 PDZ): 37.2 µM
- Kd (MAGI2_6 PDZ): 324 µM
- Kd (NHERF2_1 PDZ): 170 µM
- Kd (PARD3B_3 PDZ): 186 µM
